{"source": "paper PMC3180442", "about": "(PLoS ONE, 2011)", "key": {"RipA [1]": {"biological_target": "T1, RipA (Yersinia pestis, UniProt Q9ZC36)", "settings": "active site near Glu249; crystals grown with succinyl-CoA and tacsimate pH 5.0; acetate is the CoA acceptor in the activity assay"}, "RipA [2]": {"biological_target": "T1, RipA", "settings": "10 mM acid vs 10 mM acetate, butyryl-CoA as CoA donor, 100 mM Tris pH 7.0, room temperature; competing acceptor acid"}, "RipA [3]": {"biological_target": "T1, RipA", "settings": "5 µM RipA, 20 µM ligand, 100 mM potassium phosphate pH 7.4; Tm with ligand, apo RipA 45.8 °C"}, "[4]": {"biological_target": "Yersinia pestis RipA (Yersinia pestis)", "test": "SAXS"}, "[5]": {"biological_target": "Yersinia pestis RipA (Yersinia pestis)", "test": "SEC"}, "[6]": {"biological_target": "Yersinia pestis RipA (Yersinia pestis)", "test": "crystal structure"}}}
{"compound": "CC(=O)O", "note": "[acetate]", "values": [{"measurement": "X-ray crystal structure, 1.9 Å", "setting": "RipA [1]", "value": "electron density near the active site glutamate suggests an acetate molecule is located within"}]}
{"compound": "CCC(=O)O", "note": "[propionate]", "values": [{"measurement": "% decrease in the rate of acetyl-CoA formation", "setting": "RipA [2]", "value": 80, "unit": "%"}]}
{"compound": "CC(=O)CC(=O)SCCNC(=O)CCNC(=O)[C@H](O)C(C)(C)COP(=O)(O)OP(=O)(O)OC[C@H]1O[C@@H](n2cnc3c(N)ncnc32)[C@H](O)[C@@H]1OP(=O)(O)O", "note": "[Aceto-acetyl-CoA]", "values": [{"measurement": "Tm (°C)", "setting": "RipA [3]", "value": "48.3±0.01", "unit": "°C"}]}
{"compound": "CCCC(=O)O", "note": "[butyrate]", "values": [{"measurement": "% decrease in the rate of acetyl-CoA formation", "setting": "RipA [2]", "value": 80, "unit": "%"}]}
{"compound": "Yersinia pestis RipA (enzyme)", "values": [{"measurement": "stoichiometry N", "setting": "[4]", "value": 4}, {"measurement": "stoichiometry N", "setting": "[5]", "value": 4}, {"measurement": "stoichiometry N", "setting": "[6]", "value": 4}]}
{"compound": "CC(=O)SCCNC(=O)CCNC(=O)[C@H](O)C(C)(C)COP(=O)(O)OP(=O)(O)OC[C@H]1O[C@@H](n2cnc3c(N)ncnc32)[C@H](O)[C@@H]1OP(=O)(O)O", "note": "[Acetyl-CoA]", "values": [{"measurement": "Tm (°C)", "setting": "RipA [3]", "value": "52.8±0.03", "unit": "°C"}]}
{"compound": "CCC(=O)SCCNC(=O)CCNC(=O)[C@H](O)C(C)(C)COP(=O)(O)OP(=O)(O)OC[C@H]1O[C@@H](n2cnc3c(N)ncnc32)[C@H](O)[C@@H]1OP(=O)(O)O", "note": "[Propionyl-CoA]", "values": [{"measurement": "Tm (°C)", "setting": "RipA [3]", "value": "53.5±0.06", "unit": "°C"}]}
{"compound": "O=C(O)CCCO", "note": "[4-hydroxybutyrate]", "values": [{"measurement": "% decrease in the rate of acetyl-CoA formation", "setting": "RipA [2]", "value": 10, "unit": "%"}]}
{"compound": "CC(C)(COP(=O)(O)OP(=O)(O)OC[C@H]1O[C@@H](n2cnc3c(N)ncnc32)[C@H](O)[C@@H]1OP(=O)(O)O)[C@@H](O)C(=O)NCCC(=O)NCCSC(=O)CCC(=O)O", "note": "[Succinyl-CoA]", "values": [{"measurement": "Tm (°C)", "setting": "RipA [3]", "value": "52.8±0.28", "unit": "°C"}]}
{"compound": "C/C=C/C(=O)SCCNC(=O)CCNC(=O)[C@H](O)C(C)(C)COP(=O)(O)OP(=O)(O)OC[C@H]1O[C@@H](n2cnc3c(N)ncnc32)[C@H](O)[C@@H]1OP(=O)(O)O", "note": "[Crotonyl-CoA]", "values": [{"measurement": "Tm (°C)", "setting": "RipA [3]", "value": "47.9±0.54", "unit": "°C"}]}
{"compound": "CCCC(=O)SCCNC(=O)CCNC(=O)[C@H](O)C(C)(C)COP(=O)(O)OP(=O)(O)OC[C@H]1O[C@@H](n2cnc3c(N)ncnc32)[C@H](O)[C@@H]1OP(=O)(O)O", "note": "[Butyryl-CoA]", "values": [{"measurement": "Tm (°C)", "setting": "RipA [3]", "value": "53.4±0.05", "unit": "°C"}]}
